Where a name gives a salt, the structure may show the parent alone. Read-outs that look alike come from different tables or passages of the source.
What was measured:
[1] = system: NCI-28H cells; assay: Cytotoxicity assay (MTS) of NCI-28H cells: doxorubicin, cisplatin, paclitaxel, talc, talc bound to these drugs (Example 21); type: cell-based; details: 72 hrs
Experimental: Compare survival rate between each formulation.
1. Set up 3 cytotoxicity plates for Day 2 experiment: trypsinize NCI-28H cells (T-75 flask, passage 12): • Remove old medium, wash cells with 7 ml DPBS, remove DPBS, add 2 ml trypsin, incubate plates for 1-2′, when cells detached add 6 ml fresh medium, mix cells and medium. • Count cells under the microscope using the glass slide. […] If we need 200 wells, in each well will be 5,000 cells in 0.1 ml; so total we need 1,000,000 cells in 20 ml. […] In 50 ml Falcon tube, combine 16.6 ml fresh medium and 3.4 ml cells. Gently mix.
3. […] Final solution is 500 μL of 20 μM.
1. […] Take out supernatant.
6. Check the plate and start incubation at 37° C./5% CO2
3. Wash cells 1×300 μL media, remove final wash.

[2] = system: NCI-28H cells
[3] = system: NCI-28H cells; details: 72 hrs

Structure (SMILES): COc1cccc2c1C(=O)c1c(O)c3c(c(O)c1C2=O)C[C@@](O)(C(=O)CO)C[C@@H]3O[C@H]1C[C@H](N)[C@H](O)[C@H](C)O1 [DOX, Doxorubicin Hydrochloride]
- AVERAGE: cells + DOX (absorbance 490 nm) ([1]; DOX 0.2 μM): 0.89
- AVERAGE: cells + DOX (absorbance 490 nm) ([1]; DOX 1 μM): 0.67
- AVERAGE: cells + DOX (absorbance 490 nm) ([1]; DOX 5 μM): 0.63

Structure (SMILES): N.N.[Cl][Pt][Cl] [cisplatin, Cisplatin]
- Average reading: cells + cisplatin (absorbance 490 nm) ([1]; Cisplatin 0.0013 μM): 1.37
- Average reading: cells + cisplatin (absorbance 490 nm) ([1]; Cisplatin 0.0064 μM): 1.19
- Average reading: cells + cisplatin (absorbance 490 nm) ([1]; Cisplatin 0.8 μM): 1.23
- Average reading: cells + cisplatin (absorbance 490 nm) ([1]; Cisplatin 4 μM): 1.18
- Average reading: cells + cisplatin (absorbance 490 nm) ([1]; Cisplatin 20 μM): 0.48
- Average reading: cells + cisplatin (absorbance 490 nm) ([1]; Cisplatin 100 μM): 0.59

Structure (SMILES): Nc1ccn([C@@H]2O[C@H](CO)[C@@H](O)C2(F)F)c(=O)n1 [gemcitabine, Gemcitabine]
- cytotoxic effect on NCI-28H cells (in words) [2]: clear cytotoxic effect

Structure (SMILES): Cc1c(N)nc([C@H](CC(N)=O)NCC(N)C(N)=O)nc1C(=O)N[C@H](C(=O)N[C@H](C)[C@@H](O)[C@H](C)C(=O)N[C@H](C(=O)NCCc1nc(-c2nc(C(=O)NCCC[S+](C)C)cs2)cs1)[C@@H](C)O)C(O[C@@H]1OC(CO)[C@@H](O)C(O)C1O[C@H]1OC(CO)[C@@H](O)C(OC(N)=O)C1O)c1c[nH]cn1 (some centres unmarked) [bleomycin, Bleomycin sulfate]
- % survival NCI-28H cells after treatment with BLEOMYCIN ([3]; Bleomycin 0.004 ug/ml): 92.41%
- % survival NCI-28H cells after treatment with BLEOMYCIN ([3]; Bleomycin 0.015 ug/ml): 88.25%
- % survival NCI-28H cells after treatment with BLEOMYCIN ([3]; Bleomycin 0.06 ug/ml): 93.38%
- % survival NCI-28H cells after treatment with BLEOMYCIN ([3]; Bleomycin 0.24 ug/ml): 91.86%
- % survival NCI-28H cells after treatment with BLEOMYCIN ([3]; Bleomycin 0.97 ug/ml): 86.19%
- % survival NCI-28H cells after treatment with BLEOMYCIN ([3]; Bleomycin 3.9 ug/ml): 71.05%
- % survival NCI-28H cells after treatment with BLEOMYCIN ([3]; Bleomycin 15.6 ug/ml): 74.60%
- % survival NCI-28H cells after treatment with BLEOMYCIN ([3]; Bleomycin 62.5 ug/ml): 68.76%
- % survival NCI-28H cells after treatment with BLEOMYCIN ([3]; Bleomycin 250 ug/ml): 47.13%
- % survival NCI-28H cells after treatment with BLEOMYCIN ([3]; Bleomycin 1000 ug/ml): 24.92%

From US10925852B2, “Talc-bound compositions and uses thereof” (THE TRUSTEES OF COLUMBIA UNIVERSITY IN THE CITY OF NEW YORK, priority 2015, dated 2021)
